According to patent publication US20230108906A1, “SUBSTITUTED BICYCLIC AND TRICYCLIC UREAS AND AMIDES, ANALOGUES THEREOF, AND METHODS USING SAME” (Arbutus Biopharma Corporation, priority 2019, published 2023):

tested on: HBV rcDNA in HepDE19 cells; assay: HepDE19 assay with bDNA quantitation of HBV rcDNA; type: cell-based, hepatitis B virus (HBV); conditions: Hepatitis B virus, HepDE19, 168 h, inhibition of rcDNA formation in HepDE19 cells (HepG2 derived), Tet-free medium, 7 day incubation, Quantigene 2.0 bDNA readout, top concentration 25 μM; read-out: DE-19bDNA EC50
Experimental: HepDE19 Assay with bDNA Quantitation of HBV rcDNA:
HepDE19 cell culture system is a HepG2 (human hepatocarcinoma) derived cell line that supports HBV DNA replication and cccDNA formation in a tetracycline (Tet)-regulated manner and produces HBV rcDNA and a detectable reporter molecule dependent on the production and maintenance of cccDNA (Guo, et al., 2007, J. Virol. 81:12472-12484).
HepDE19 (50,000 cells/well) were plated in 96-well collagen-coated tissue-culture treated microtiter plates in DMEM/F12 medium supplemented with 10% fetal bovine serum, 1% penicillin-streptomycin and 1 μg/mL tetracycline and incubated in a humidified incubator at 37° C. and 5% CO2 overnight. Next day, the cells were switched to fresh medium without tetracycline and incubated for 4 hours at 37° C. and 5% CO2. The cells were treated with fresh Tet-free medium with compounds at concentrations starting at 25 μM and a serial, […], 8-point, titration series in duplicate. The final DMSO concentration in the assay was 0.5%. The plates were incubated for 7 days in a humidified incubator at 37° C. and 5% CO2. Following a 7 day-incubation, the level of rcDNA present in the inhibitor-treated wells was measured using a Quantigene 2.0 bDNA assay kit (Affymetrix, Santa Clara, Calif.) with HBV specific custom probe set and manufacturers instructions. Concurrently, the effect of compounds on cell viability was assessed using replicate plates, plated at a density of 5,000 cells/well and incubated for 4 days, to determine the ATP content as a measure of cell viability using the cell-titer glo reagent (CTG; Promega Corporation, Madison, Wis.) as per manufacturer's instructions. The plates were read using a Victor luminescence plate reader (PerkinElmer Model 1420 Multilabel counter) and the relative luminescence units (RLU) data generated from each well was calculated as % inhibition of the untreated control wells and analyzed using XL-Fit module in Microsoft Excel to determine EC50 and EC90 (bDNA) and CC50 (CTG) values using a 4-parameter curve fitting algorithm.
Representative compounds of the disclosure were tested for their abilities to inhibit formation of relaxed circular DNA (rcDNA) in a HepDE19 assay, as described elsewhere herein.

Compared with `CN(C(=O)Nc1ccc(F)c(Cl)c1)C1CCCc2[nH]c(=O)c3ccccc3c21` (racemic) [Compound 6, 3-(3-Chloro-4-fluorophenyl)-1-methyl-1-(6-oxo-1,2,3,4,5,6-hexahydrophenanthridin-1-yl)urea], `CN(C(=O)Nc1ccc(F)c(Cl)c1)C1COCc2[nH]c(=O)c3ccccc3c21` (racemic) [Compound 18, 3-(3-Chloro-4-fluorophenyl)-1-methyl-1-(6-oxo-1,4,5,6-tetrahydro-2H-pyrano[3,4-c]isoquinolin-1-yl)urea] is 2.7-fold lower in EC50: 80 nM for the first, 30 nM for the second.

First: CN(C(=O)Nc1ccc(F)c(Cl)c1)C1CCCc2[nH]c(=O)c3cc(F)c(F)cc3c21 (racemic) [Compound 15, 3-(3-Chloro-4-fluorophenyl)-1-(8,9-difluoro-6-oxo-1,2,3,4,5,6-hexahydrophenanthridin-1-yl)-1-methylurea]
Second: CN(C(=O)Nc1ccc(F)c(Cl)c1)C1COCc2[nH]c(=O)c3cc(F)c(F)cc3c21 (racemic) [Compound 24, 3-(3-Chloro-4-fluorophenyl)-1-(8,9-difluoro-6-oxo-1,4,5,6-tetrahydro-2H-pyrano[3,4-c]isoquinolin-1-yl)-1-methylurea]
The EC50 of the first is 2-fold higher: 20 nM for the first, 10 nM for the second.

First: CN(C(=O)Nc1ccc(F)c(Cl)c1)C1COCc2[nH]c(=O)c3cc(F)ccc3c21 (racemic) [Compound 23, 3-(3-Chloro-4-fluorophenyl)-1-(8-fluoro-6-oxo-1,4,5,6-tetrahydro-2H-pyrano[3,4-c]isoquinolin-1-yl)-1-methylurea]
Second: CN(C(=O)Nc1ccc(F)c(Cl)c1)[C@H]1COCc2[nH]c(=O)c3cc(F)ccc3c21 (single isomer, unassigned) [Compound 40]
The EC50 of the first is 50-fold lower: 20 nM for the first, 1000 nM for the second. The first is the more potent here.

Compared with `CC1Cc2[nH]c(=O)c3ccccc3c2C(N(C)C(=O)Nc2ccc(F)c(Cl)c2)C1` (racemic) [Compound 26, 3-(3-Chloro-4-fluorophenyl)-1-methyl-1-(3-methyl-6-oxo-1,2,3,4,5,6-hexahydrophenanthridin-1-yl)urea], `CN(C(=O)Nc1ccc(F)c(Cl)c1)[C@@H]1COCc2[nH]c(=O)c3cc(F)ccc3c21` (single isomer, unassigned) [Compound 41] is 290-fold lower in EC50: 2900 nM for the first, 10 nM for the second.

First: CCN(C(=O)Nc1ccc(F)c(Cl)c1)C1COCc2[nH]c(=O)c3cc(F)c(F)cc3c21 (racemic) [Compound 45, 3-(3-Chloro-4-fluorophenyl)-1-(8,9-difluoro-6-oxo-1,4,5,6-tetrahydro-2H-pyrano[3,4-c]isoquinolin-1-yl)-1-ethylurea]
Second: CN(C(=O)Nc1ccc(F)c(C#N)c1)C1COCc2[nH]c(=O)c3cc(F)c(F)cc3c21 (racemic) [Compound 106, 3-(3-Cyano-4-fluorophenyl)-1-(8,9-difluoro-6-oxo-1,4,5,6-tetrahydro-2H-pyrano[3,4-c]isoquinolin-1-yl)-1-methylurea]
The EC50 of the first is 2-fold lower: 10 nM for the first, 20 nM for the second.

Compared with `CN(C(=O)Nc1ccc(F)c(Cl)c1)C1COC(=O)c2[nH]c(=O)c3cc(F)c(F)cc3c21` (racemic) [Compound 152, 3-(3-Chloro-4-Fluorophenyl)-1-(8,9-difluoro-4,6-dioxo-1,4,5,6-tetrahydro-2H-pyrano[3,4-c]isoquinolin-1-yl)-1-methylurea], `CN(C(=O)Nc1ccc(F)c(C(F)F)c1)C1COCc2nc(NCCN)c3cc(F)c(F)cc3c21` (racemic) [Compound 239, 1-(6-((2-Aminoethyl)amino)-8,9-difluoro-1,4-dihydro-2H-pyrano[3,4-c]isoquinolin-1-yl)-3-(3-(difluoromethyl)-4-fluorophenyl)-1-methylurea] is 15-fold higher in EC50: 20 nM for the first, 300 nM for the second.

Going from `CN(C(=O)Nc1ccc(F)c(C#N)c1)C1CS(=O)(=O)Cc2[nH]c(=O)c3cc(F)ccc3c21` (racemic) [Compound 215, 3-(3-Cyano-4-fluorophenyl)-1-(8-fluoro-3,3-dioxido-6-oxo-1,4,5,6-tetrahydro-2H-thiopyrano[3,4-c]isoquinolin-1-yl)-1-methylurea] to `CN(C(=O)Nc1ccc(F)c(Cl)c1)C1CCCc2[nH]c(=O)c3c(c21)CCOC3` (single isomer, unassigned) [Compound 60, 3-(3-Chloro-4-fluorophenyl)-1-methyl-1-(5-oxo-1,4,5,6,7,8,9,10-octahydro-2H-pyrano[3,4-c]quinolin-10-yl)urea], the EC50 falls from ≥ 25000 nM to 3200 nM.

same assay, conditions: inhibition of rcDNA formation in HepDE19 cells (HepG2 derived), Tet-free medium, 7 day incubation, Quantigene 2.0 bDNA readout, top concentration 25 μM; read-out: DE-19bDNA EC50

In order of falling EC50:
1. CCN(C(=O)Nc1ccc(F)c(F)c1)C1CCCc2[nH]c(=O)c3c(c21)CCCC3 (single isomer, unassigned) [Compound 50, 3-(3,4-Difluorophenyl)-1-ethyl-1-(6-oxo-1,2,3,4,5,6,7,8,9,10-decahydrophenanthridin-1-yl)urea]  6800 nM
2. CN(C(=O)Nc1ccc(F)c(Cl)c1)C1CCCc2[nH]c(=O)c3c(c21)CCOC3 (single isomer, unassigned) [Compound 61, 3-(3-Chloro-4-fluorophenyl)-1-methyl-1-(5-oxo-1,4,5,6,7,8,9,10-octahydro-2H-pyrano[3,4-c]quinolin-10-yl)urea]  5100 nM
3. CN(C(=O)Nc1ccc(F)c(Cl)c1)C1COCc2[nH]c(=O)c3ccccc3c21 (single isomer, unassigned) [Compound 36, 3-(3-Chloro-4-fluorophenyl)-1-methyl-1-(6-oxo-1,4,5,6-tetrahydro-2H-pyrano[3,4-c]isoquinolin-1-yl)urea]  4600 nM
4. CN(C(=O)Nc1ccc(F)c(F)c1)C1CCCc2[nH]c(=O)c3c(c21)CCCC3 (single isomer, unassigned) [Compound 48, 3-(3,4-Difluorophenyl)-1-methyl-1-(6-oxo-1,2,3,4,5,6,7,8,9,10-decahydrophenanthridin-1-yl)urea]  3100 nM
5. CCN(C(=O)Nc1ccc(F)c(Cl)c1)C1CCCc2[nH]c(=O)c3c(c21)CCCC3 (single isomer, unassigned) [Compound 53, 3-(3-Chloro-4-fluorophenyl)-1-ethyl-1-(6-oxo-1,2,3,4,5,6,7,8,9,10-decahydrophenanthridin-1-yl)urea]  2600 nM
6. CN(C(=O)Nc1ccc(F)c(Cl)c1)C1CCCc2[nH]c(=O)c3c(c21)CCCC3 (single isomer, unassigned) [Compound 46, 3-(3-Chloro-4-fluorophenyl)-1-methyl-1-(6-oxo-1,2,3,4,5,6,7,8,9,10-decahydrophenanthridin-1-yl)urea]  1200 nM
7. CN(C(=O)Nc1ccc(F)c(Cl)c1)C1CCCc2[nH]c(=O)c3ccccc3c21 (single isomer, unassigned) [Compound 16, 3-(3-Chloro-4-fluorophenyl)-1-methyl-1-(6-oxo-1,2,3,4,5,6-hexahydrophenanthridin-1-yl)urea]  760 nM
8. CN(C(=O)Nc1ccc(F)c(F)c1)C1CCCc2[nH]c(=O)c3c(c21)CCCC3 (single isomer, unassigned) [Compound 49, 3-(3,4-Difluorophenyl)-1-methyl-1-(6-oxo-1,2,3,4,5,6,7,8,9,10-decahydrophenanthridin-1-yl)urea]  160 nM
9. CCN(C(=O)Nc1ccc(F)c(F)c1)C1CCCc2[nH]c(=O)c3c(c21)CCCC3 (single isomer, unassigned) [Compound 51, 3-(3,4-Difluorophenyl)-1-ethyl-1-(6-oxo-1,2,3,4,5,6,7,8,9,10-decahydrophenanthridin-1-yl)urea]  100 nM
10. CN(C(=O)Nc1ccc(F)c(Cl)c1)C1CCCc2[nH]c(=O)c3c(c21)CCCC3 (single isomer, unassigned) [Compound 47, 3-(3-Chloro-4-fluorophenyl)-1-methyl-1-(6-oxo-1,2,3,4,5,6,7,8,9,10-decahydrophenanthridin-1-yl)urea]  60 nM
11. CN(C(=O)Nc1ccc(F)c(Cl)c1)C1CCCc2[nH]c(=O)c3ccccc3c21 (single isomer, unassigned) [Compound 17, 3-(3-Chloro-4-fluorophenyl)-1-methyl-1-(6-oxo-1,2,3,4,5,6-hexahydrophenanthridin-1-yl)urea]  50 nM
12. CN(C(=O)Nc1ccc(F)c(Cl)c1)C1COCc2[nH]c(=O)c3ccccc3c21 (single isomer, unassigned) [Compound 37, 3-(3-Chloro-4-fluorophenyl)-1-methyl-1-(6-oxo-1,4,5,6-tetrahydro-2H-pyrano[3,4-c]isoquinolin-1-yl)urea]  30 nM
13. CCN(C(=O)Nc1ccc(F)c(Cl)c1)C1CCCc2[nH]c(=O)c3c(c21)CCCC3 (single isomer, unassigned) [Compound 54, 3-(3-Chloro-4-fluorophenyl)-1-ethyl-1-(6-oxo-1,2,3,4,5,6,7,8,9,10-decahydrophenanthridin-1-yl)urea]  30 nM
